Where two headings read alike, the source gives them in different places.
Assays:
17β-HSD10 [1] = molecular target: T1, 17β-HSD10 (Homo sapiens, UniProt Q99714); experiment: 17β-HSD10 (ABAD) enzyme inhibition assay, NADH oxidation read at 340 nm (primary screen and dose response); format: biochemical; details: for EC50 / Max. Effect (%) / Hill Slope / Max. Fit / Min. Fit: recombinant 17βHSD10 enzyme assay; for Hill Slope / Max. Fit / Min. Fit: curve fit
T1 construct: Histev (histidine tag with TEV site) (N, cleaved yes); made in house; host or cells: E. coli BL21-CodonPlus
T1 sequence (Q99714 1-261): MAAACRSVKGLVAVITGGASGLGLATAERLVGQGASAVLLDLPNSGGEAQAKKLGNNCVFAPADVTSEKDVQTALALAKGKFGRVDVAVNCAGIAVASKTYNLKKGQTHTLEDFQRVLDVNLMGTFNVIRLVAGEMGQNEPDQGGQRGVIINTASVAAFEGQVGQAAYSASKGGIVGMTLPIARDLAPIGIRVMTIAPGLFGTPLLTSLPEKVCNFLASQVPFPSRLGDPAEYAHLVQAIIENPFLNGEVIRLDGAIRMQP
How it was run: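 Screening used a 35 min room-temperature endpoint A340 read after compound (10 μM) and enzyme (2.5 nM, E. coli-expressed, His-tag removed) preincubated 15 min, then 100 μM NADH plus acetoacetyl-CoA added. Dose-response runs tracked absorbance kinetically 45 min; buffer pH 7.4 Tris with BSA, DTT.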

[2] = Mouse hepatocyte stability; format: in vitro ADME; design: k: unit not given here; details: for Heps Category: hepatocyte metabolism category, mouse; for Cl / k / half-life: mouse hepatocytes; for Cl: clearance; for k: k=absorption rate constant (so in the source)
Excerpt: (§1) Table 5: Initial mouse hepatocyte stability and plasma protein binding experiments were undertaken on some of the best exemplars from the representative series with AG18051 a previously published 17β-HSD10 inhibitor (C. R. Kissinger et al., J. Mol. Biol., 342 (2004), p. 943; Lim, Y.-A., Grimm, A., Giese, M. PLoS ONE (2011), 6, e28887.) Ref: shown for comparison. Where k=absorption rate constant Cl=clearance, T1/2=half-life, Heps=hepatocyte metabolism, PPB=plasma protein binding.

[3] = Mouse plasma protein binding; format: in vitro ADME
Excerpt: as §1

mtsABAD HEK293 cells [4] = experiment: Alamar Blue cell viability assay; format: cell-based, human; details: 50 μM compound
mtsABAD HEK293 cells [5] = experiment: Lactate dehydrogenase (LDH) cytotoxicity assay; format: cell-based, human; details: 50 μM compound
17β-HSD10 [6] = molecular target: T1, 17β-HSD10; experiment: Mechanism of action against the substrates NADH and AcetoAcetyl CoA; format: biochemical
Experimental: To determine the kinetics for acetoacetyl-CoA and the effect of 17β-HSD10 concentration upon reaction rate, a matrix titration experiment was set up. Previously determined conditions were used with a fixed concentration of 700 μM NADH and a starting concentration of up to 200 μM acetoacetyl-CoA. Doubling dilutions of acetoacetyl-CoA were then coupled with doubling dilutions of 17β-HSD10, which started with a maximum concentration of 40 nM. Data collected from the experiment was analysed using a standard template, from which reaction progress curves were analysed to calculate initial velocities and obtain Km values using the Michaelis-Menten equation (XLFit, ID Business Solutions).
To determine the kinetics for NADH and the effect of 17β-HSD10 concentration upon reaction rate a matrix titration experiment was set up. Previously determined conditions (Aitken et al. 2017, supra) were used, 120 μM acetoacetate and a starting concentration of up to 1000 μM NADH. Doubling dilutions of NADH were then coupled with doubling dilutions of 17β-HSD10, which started with a maximum concentration of 40 nM. Data were analysed as described previously (Aitken et al. 2017, supra).
Two compounds, ESC1002033 and ESC1002082, representative of the two different clusters were investigated for their mechanism of action against the substrates, NADH and AcetoAcetyl CoA (AcAc). The ESC inhibitors were tested as 12-point 1 in 1.5 dilution series with a maximal concentration of 2.5 μM.

[7] = Table 5, read-out: Mean ABAD pIC50 (converted)

EC50 (17β-HSD10 [1]) [µM]	Max. Effect (%) (17β-HSD10 [1])	Hill Slope (17β-HSD10 [1])	Max. Fit (17β-HSD10 [1])	Min. Fit (17β-HSD10 [1])	Heps Category [2]	Cl [2] [ml/minute/g liver]	k [2]	IC50 (17β-HSD10 [1]; [7]) [µM]	half-life [2] [min]	Structure (SMILES)	Alamar Blue % Viability (50 μM Dose) (mtsABAD HEK293 cells [4]) [%]	LDH % Toxicity (50 μM Dose) (mtsABAD HEK293 cells [5]) [%]	also measured
0.138	97	1.2	96	17	High	8.6	0.018			CC(C)CN(C(=O)c1c(F)cccc1F)c1cccc(N(C)Cc2c[nH]cn2)c1 [ESC1002456, 2,6-difluoro-N-[3-[1H-imidazol-4-ylmethyl(methyl)amino]phenyl]-N-isobutyl-benzamide]			Mean ABAD pIC50 (17β-HSD10 [1]; Table 5): 6.86; Mouse PPB (% free) [3]: 8.9 % free
0.191	94	1	93	−3	High	71.5	0.15	0.17	4.65	Cc1ccsc1C(=O)N1CCC[C@H]1c1ccccc1-c1cccc(Cl)c1 (single isomer, unassigned) [ESC1002769]			
0.0407	102	1.1	98	−3	High	83.1	0.17	0.0347	4	O=C(c1sccc1Cl)N1CCC[C@H]1c1ccccc1-c1cc(O)ccc1F (single isomer, unassigned) [ESC1002842]			Mouse PPB (% free) [3]: 3.4 % free
0.398	100	1.4	96	4	Mod	7.2	0.02	0.398	46.2	Cc1ccsc1C(=O)N(CC(C)C)c1cccc(N(C)Cc2c[nH]cn2)c1 [ESC1002597]			
0.708	99	1.6	95	−1						CN(Cc1c[nH]cn1)c1cccc(N(CC2CC2)C(=O)c2ccccc2F)c1 [ESC1002342, N-(cyclopropylmethyl)-2-fluoro-N-[3-[1H-imidazol-4-ylmethyl(methyl)amino]phenyl]benzamide]	85.04	4.76	
1.15	95	1.1	97	0						Cc1ccsc1C(=O)N1CCC[C@H]1c1ccccc1-c1ccc(OC(F)(F)F)cc1 [ESC1002315]	84.77	5.91	
> 20	13									CC(C)CN(C(=O)c1ccccc1F)c1cccc(N(C)Cc2cncn2C)c1 [ESC1002199]	89.524	5.028	
0.191	101	1.1	100	0						COc1cccc(-c2ccccc2[C@@H]2CCCN2C(=O)c2sccc2C)c1 [ESC1002338]	82.98	4.64	IC50 (17β-HSD10 [1]; 17β-HSD10 inhibition, read-out: IC50): 0.191 µM

The next lines start with the compound.

Structure (SMILES)	EC50 (17β-HSD10 [1]) [µM]	Max. Effect (%) (17β-HSD10 [1])	Hill Slope (17β-HSD10 [1])	Max. Fit (17β-HSD10 [1])	Min. Fit (17β-HSD10 [1])	Heps Category [2]	Cl [2] [ml/minute/g liver]	k [2]	IC50 (17β-HSD10 [1]; [7]) [µM]	half-life [2] [min]	Alamar Blue % Viability (50 μM Dose) (mtsABAD HEK293 cells [4]) [%]	LDH % Toxicity (50 μM Dose) (mtsABAD HEK293 cells [5]) [%]	also measured
O=C(c1[nH]ncc1Cl)N1CCC[C@H]1c1ccccc1-c1cccc(O)c1 (single isomer, unassigned) [ESC1002799]	0.155	97	1.1	96	−3	High	21.9	0.046	0.11	15.2			Mouse PPB (% free) [3]: 9.9 % free
Cc1ncc(CN(C)c2cccc(N(CC(C)C)C(=O)c3ccccc3F)c2)[nH]1 [ESC1002204]	0.398	97	1.2	98	0	High	54	0.11	0.398	6.16			Alamar Blue % Viability (50 μM Dose) (mtsABAD HEK293 cells [4]; listed as ESC1002204-01): 88.836%; 17β-HSD10 / ABAD activity in words (SAR discussion) (17β-HSD10 [1]): only slightly reduced ABAD inhibition levels; LDH % Toxicity (50 μM Dose) (mtsABAD HEK293 cells [5]; listed as ESC1002204-01): 5.048%
COc1ccc(-c2ccccc2C2CCCN2C(=O)c2sccc2C)cn1 (racemic) [ESC1002082, [2-[2-(6-methoxy-3-pyridyl)phenyl]pyrrolidin-1-yl]-(3-methyl-2-thienyl)methanone]	0.794	96	1.1	98	0								mode of binding with respect to NADH (17β-HSD10 [6]; AcAc in excess at 800 μM): non-competitively; mode of binding with respect to AcAc (17β-HSD10 [6]; excess of 100 μM NADH): competitively; 17β-HSD10 pIC50 (17β-HSD10 [1]; 17β-HSD10 dose response / inhibition assay): 6.1; IC50 (17β-HSD10 [1]; primary screening, resynthesized HTS hit compounds, read-out: ABAD plC50 (converted)): 0.794 µM
Cc1ccc(C(=O)N(CC(C)C)c2cccc(N(C)Cc3c[nH]cn3)c2)c(F)c1 [ESC1002575, 2-fluoro-N-[3-[1H-imidazol-4-ylmethyl(methyl)amino]phenyl]-N-isobutyl-4-methyl-benzam]	0.269	102	1.3	101	10	Mod	5.8	0.012					Mean ABAD pIC50 (17β-HSD10 [1]; Table 5): 6.57; Mouse PPB (% free) [3]: 7.6 % free
COc1cccc(-c2ccccc2[C@@H]2CCCN2C(=O)c2[nH]ncc2Cl)c1 (single isomer, unassigned) [ESC1002757]	0.115	94	0.89	95	−10	High	62.4	0.13	0.105	5.33			
CC(C)CN(C(=O)c1ccccc1F)c1cccc(N(C)Cc2ccccn2)c1 [ESC1002209]	5.75	80	0.98	104	0						80.514	5.698	
CN(C)CCN(C(=O)c1ccccc1F)c1cccc(N(C)Cc2c[nH]cn2)c1 [ESC1002334, N-[2-(dimethylamino)ethyl]-2-fluoro-N-[3-[1H-imidazol-4-ylmethyl(methyl)amino]phenyl]benzamide]	> 20	23									92.96	5.17	
CCCC(=O)N(CC(C)C)c1cccc(N(C)Cc2cnc[nH]2)c1 [ESC1002235, N-[3-[1H-imidazol-5-ylmethyl(methyl)amino]phenyl]-N-isobutyl-butanamide]	2.95	85	1.1	93	−3						84.09	5.54	
Cc1ccc(-c2ccccc2[C@@H]2CCCN2C(=O)c2sccc2C)cc1 [ESC1002337]	0.209	102	1.3	99	−7						85.13	4.10	
COc1ccc(-c2ccccc2[C@H]2CCCN2C(=O)c2sccc2C)cc1 [ESC1002089]			1.1	98	0						83.064	5.398	fold improvement in activity / potency (17β-HSD10 [1]; relative to the parent compound of the sentence): under 3 fold
